Source: publication PMC12631985 (Environmental Science & Technology, 2025)

How the values were obtained:
AR mRNA = assay: Quantitative RT-PCR for DHT-induced AR mRNA expression in 22Rv1/MMTV-GRKO cells; format: cell-based, human; conditions: with DHT; highest noncytotoxic concentration (≥80% viability); n = 3
zebrafish = conditions: previous research; ref number not printed at the place; cited from earlier work
AR protein expression = assay: Western blot for DHT-induced AR protein expression; conditions: highest noncytotoxic concentration (≥80% viability), n = 3

SMILES	reduction in AR mRNA levels compared to the DHT-only treatment group (AR mRNA)	toxicity in zebrafish (zebrafish)	suppression level of DHT-induced AR protein expression compared with the DHT-only treatment group (AR protein expression)
Fc1ccc([C@]2(Cn3cncn3)O[C@H]2c2ccccc2Cl)cc1 (racemic) [epoxiconazole]	59.0%		
N#CC(CCc1ccc(Cl)cc1)(Cn1cncn1)c1ccccc1 (centres unmarked) [fenbuconazole]	45.0%	significantly impaired mitochondrial function and locomotor activity	24.6%
C[Si](Cn1cncn1)(c1ccc(F)cc1)c1ccc(F)cc1 [flusilazole]	60.4%		
CC1(C)CCC(Cc2ccc(Cl)cc2)C1(O)Cn1cncn1 (centres unmarked) [metconazole]	27.8%		
CC(C)(C)C(O)(CCc1ccc(Cl)cc1)Cn1cncn1 (centres unmarked) [tebuconazole]	37.5%		
CCCOC/C(=N\c1ccc(Cl)cc1C(F)(F)F)n1ccnc1 [triflumizole]	26.5%		
